PMC10818746, “Inhibition of CYP1A1 Alleviates Colchicine-Induced Hepatotoxicity” (Toxins, 2024)

Tests used:
Type in all cases: in vitro ADME
Conditions in all cases: colchicine 25 µM, NADPH 1 mM, CYP 2 pmol/mL, PBS pH 7.4; mean ± SD (n = 2)
CYP1A1 = target: T1, CYP1A1 (Homo sapiens, UniProt P04798); assay: Colchicine metabolism by cDNA-expressed recombinant CYP1A1
T1 construct: purchased Research Institute for Liver Diseases Co., Ltd. (Shanghai, China)
T1 sequence (P04798 1-512): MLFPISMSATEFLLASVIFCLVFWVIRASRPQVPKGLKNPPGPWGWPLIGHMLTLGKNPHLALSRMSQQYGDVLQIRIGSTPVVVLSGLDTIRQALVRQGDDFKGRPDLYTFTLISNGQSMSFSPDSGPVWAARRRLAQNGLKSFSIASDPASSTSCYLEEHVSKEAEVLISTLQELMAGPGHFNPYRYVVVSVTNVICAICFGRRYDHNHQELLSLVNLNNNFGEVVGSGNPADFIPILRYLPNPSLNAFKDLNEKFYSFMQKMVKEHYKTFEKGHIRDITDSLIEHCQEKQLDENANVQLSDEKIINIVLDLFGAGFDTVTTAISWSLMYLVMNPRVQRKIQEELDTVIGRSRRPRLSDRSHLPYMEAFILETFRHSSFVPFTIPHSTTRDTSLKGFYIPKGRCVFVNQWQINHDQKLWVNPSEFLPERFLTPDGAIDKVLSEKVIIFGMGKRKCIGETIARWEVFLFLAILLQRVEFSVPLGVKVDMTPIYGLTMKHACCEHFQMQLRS
Protocol: (§1) Pre-cooled acetonitrile was used to terminate the reaction, and then centrifugation (4 °C, 12,000 rpm, 20 min) was performed to obtain the sample.
(§2) All samples were analyzed as shown in [17] and are briefly described in Supporting Information. […]
(§3) Supplementary materials and methods
(§4) Reference numbers refer to the main text list
(§5) UHPLC‐Q exactive plus MS Analysis
(§6) All samples were analyzed on a liquid chromatography system including a Vanquish autosampler, Vanquish detector, Vanquish pump (Thremo Fisher Scientific, Santa Clara, CA). Samples were separated on an ACQUITY UPLC HSS T3 column (2.1×100 mm, […], Waters, USA). The injection volume: 5 μL, and the flow rate was 0.3 mL/min.
(§7) Phase A was H2O containing 0.01% formic acid, and phase B was acetonitrile containing 0.01% formic acid. The elution gradient was as follows: 0‐12 mi n, 2‐98% B; 12‐14 min, 2% A; 14‐16 min, 98% A. Other parameters are as follows: column temperature 45 ℃ , flow rate of collision gas and dry gas 9 L/min. Capillary voltage 3.5 kV, temperature 350 ℃ , atomizer pressure 35 psi. Vanquish UHPLC‐Q Exactive plus MS (Thermo Fisher, USA) was collected in both positive modes, operating in full scan mode with 60‐900 m/z. […]

CYP3A5 = target: T2, CYP3A5 (Homo sapiens, UniProt P20815); assay: Colchicine metabolism by cDNA-expressed recombinant CYP3A5
T2 construct: purchased Research Institute for Liver Diseases Co., Ltd. (Shanghai, China)
T2 sequence (P20815 whole entry): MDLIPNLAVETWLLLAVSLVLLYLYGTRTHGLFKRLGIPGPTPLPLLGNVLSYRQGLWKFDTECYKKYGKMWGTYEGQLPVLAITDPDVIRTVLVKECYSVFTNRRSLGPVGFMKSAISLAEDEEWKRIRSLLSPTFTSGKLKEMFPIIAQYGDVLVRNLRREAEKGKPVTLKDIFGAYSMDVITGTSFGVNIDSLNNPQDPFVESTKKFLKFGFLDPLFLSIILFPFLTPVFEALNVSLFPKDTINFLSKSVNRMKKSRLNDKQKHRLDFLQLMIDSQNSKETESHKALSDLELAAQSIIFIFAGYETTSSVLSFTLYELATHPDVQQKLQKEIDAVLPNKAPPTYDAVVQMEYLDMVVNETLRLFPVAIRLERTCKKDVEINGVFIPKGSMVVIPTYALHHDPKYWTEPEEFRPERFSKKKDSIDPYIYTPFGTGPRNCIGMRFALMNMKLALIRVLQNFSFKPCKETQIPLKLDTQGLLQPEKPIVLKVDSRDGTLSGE
Protocol: as §1, §2, §3, §4, §5, §6, §7

CYP2D6 = target: T3, CYP2D6 (Homo sapiens, UniProt P10635); assay: Colchicine metabolism by cDNA-expressed recombinant CYP2D6
T3 construct: purchased Research Institute for Liver Diseases Co., Ltd. (Shanghai, China)
T3 sequence (P10635 whole entry): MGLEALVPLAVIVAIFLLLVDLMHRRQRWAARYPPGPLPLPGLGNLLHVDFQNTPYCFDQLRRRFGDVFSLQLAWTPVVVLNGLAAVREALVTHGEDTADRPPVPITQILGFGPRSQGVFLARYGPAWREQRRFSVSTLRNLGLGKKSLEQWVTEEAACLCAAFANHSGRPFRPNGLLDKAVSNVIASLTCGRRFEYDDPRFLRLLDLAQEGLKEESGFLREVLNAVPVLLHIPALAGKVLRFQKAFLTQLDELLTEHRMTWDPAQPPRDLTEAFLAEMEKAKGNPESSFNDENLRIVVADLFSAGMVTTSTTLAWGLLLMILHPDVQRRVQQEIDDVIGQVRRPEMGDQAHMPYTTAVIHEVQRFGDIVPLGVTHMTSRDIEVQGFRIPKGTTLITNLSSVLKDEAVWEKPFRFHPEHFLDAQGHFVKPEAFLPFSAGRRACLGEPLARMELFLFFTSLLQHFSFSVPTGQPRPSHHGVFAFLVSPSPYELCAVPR
Protocol: as §1, §2, §3, §4, §5, §6, §7

CYP1A2 = target: T4, CYP1A2 (Homo sapiens, UniProt P05177); assay: Colchicine metabolism by cDNA-expressed recombinant CYP1A2
T4 construct: purchased Research Institute for Liver Diseases Co., Ltd. (Shanghai, China)
T4 sequence (P05177 1-516): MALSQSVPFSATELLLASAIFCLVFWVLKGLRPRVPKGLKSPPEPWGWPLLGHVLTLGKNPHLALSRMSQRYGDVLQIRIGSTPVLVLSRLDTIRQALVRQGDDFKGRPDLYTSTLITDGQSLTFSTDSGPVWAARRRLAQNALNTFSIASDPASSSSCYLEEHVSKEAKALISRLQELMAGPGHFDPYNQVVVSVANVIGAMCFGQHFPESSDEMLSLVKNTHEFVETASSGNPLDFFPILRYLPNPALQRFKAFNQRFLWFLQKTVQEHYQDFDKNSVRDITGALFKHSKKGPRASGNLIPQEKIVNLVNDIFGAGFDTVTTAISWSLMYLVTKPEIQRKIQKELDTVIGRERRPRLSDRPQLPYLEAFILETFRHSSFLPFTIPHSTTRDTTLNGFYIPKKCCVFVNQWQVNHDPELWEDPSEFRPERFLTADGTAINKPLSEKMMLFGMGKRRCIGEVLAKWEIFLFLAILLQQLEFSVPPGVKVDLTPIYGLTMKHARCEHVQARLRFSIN
Protocol: as §1, §2, §3, §4, §5, §6, §7

CYP2C19 = target: T5, CYP2C19 (Homo sapiens, UniProt P33261); assay: Colchicine metabolism by cDNA-expressed recombinant CYP2C19
T5 construct: purchased Research Institute for Liver Diseases Co., Ltd. (Shanghai, China)
T5 sequence (P33261 whole entry): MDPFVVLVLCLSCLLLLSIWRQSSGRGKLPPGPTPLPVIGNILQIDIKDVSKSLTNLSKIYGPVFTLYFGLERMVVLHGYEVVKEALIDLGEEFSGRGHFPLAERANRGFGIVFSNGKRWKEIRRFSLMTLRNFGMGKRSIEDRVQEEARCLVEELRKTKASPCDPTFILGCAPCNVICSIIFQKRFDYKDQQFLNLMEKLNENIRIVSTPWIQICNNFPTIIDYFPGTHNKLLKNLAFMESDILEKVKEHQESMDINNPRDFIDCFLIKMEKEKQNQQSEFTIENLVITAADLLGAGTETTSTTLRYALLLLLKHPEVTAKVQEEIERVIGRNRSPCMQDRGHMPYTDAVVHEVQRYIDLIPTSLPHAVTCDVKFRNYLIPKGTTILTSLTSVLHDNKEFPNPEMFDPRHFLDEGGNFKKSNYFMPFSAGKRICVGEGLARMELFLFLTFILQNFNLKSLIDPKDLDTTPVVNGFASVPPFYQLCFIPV
Protocol: as §1, §2, §3, §4, §5, §6, §7

CYP2C9 = target: T6, CYP2C9 (Homo sapiens, UniProt P11712); assay: Colchicine metabolism by cDNA-expressed recombinant CYP2C9
T6 construct: purchased Research Institute for Liver Diseases Co., Ltd. (Shanghai, China)
T6 sequence (P11712 whole entry): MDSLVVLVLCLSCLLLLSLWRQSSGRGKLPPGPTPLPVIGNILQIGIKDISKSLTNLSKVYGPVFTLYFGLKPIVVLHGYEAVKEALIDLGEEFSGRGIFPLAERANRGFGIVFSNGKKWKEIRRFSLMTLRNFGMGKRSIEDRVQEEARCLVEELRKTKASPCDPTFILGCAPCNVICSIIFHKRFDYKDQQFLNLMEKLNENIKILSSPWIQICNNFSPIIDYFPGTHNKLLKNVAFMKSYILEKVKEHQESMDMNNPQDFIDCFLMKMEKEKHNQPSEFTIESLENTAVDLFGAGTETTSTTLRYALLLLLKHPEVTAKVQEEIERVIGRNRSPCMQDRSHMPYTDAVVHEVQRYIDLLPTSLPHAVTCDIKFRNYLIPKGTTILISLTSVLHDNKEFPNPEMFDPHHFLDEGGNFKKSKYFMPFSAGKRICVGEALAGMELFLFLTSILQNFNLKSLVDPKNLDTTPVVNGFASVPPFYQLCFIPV
Protocol: as §1, §2, §3, §4, §5, §6, §7

## COc1cc2c(c(OC)c1OC)-c1ccc(O)c(=O)cc1[C@@H](NC(C)=O)CC2 [M4]
CYP1A1
  peak area of the metabolite after incubation with CYP1A1 as a percentage of the total peak areas from all the CYPs: 6.99 ± 0.30%
CYP3A5
  peak area of the metabolite after incubation with CYP3A5 as a percentage of the total peak areas from all the CYPs: 7.36 ± 0.44%
CYP2D6
  peak area of the metabolite after incubation with CYP2D6 as a percentage of the total peak areas from all the CYPs: 11.27 ± 3.15%
CYP1A2
  peak area of the metabolite after incubation with CYP1A2 as a percentage of the total peak areas from all the CYPs: 6.72 ± 0.44%
CYP2C19
  peak area of the metabolite after incubation with CYP2C19 as a percentage of the total peak areas from all the CYPs: 6.69 ± 1.91%
CYP2C9
  peak area of the metabolite after incubation with CYP2C9 as a percentage of the total peak areas from all the CYPs: 6.44 ± 0.02%

## COc1cc2c(c(OC)c1OC)-c1ccc(OC)c(=O)cc1C=CC2 [M6]
CYP1A1
  peak area of the metabolite after incubation with CYP1A1 as a percentage of the total peak areas from all the CYPs: 8.78 ± 1.10%
CYP3A5
  peak area of the metabolite after incubation with CYP3A5 as a percentage of the total peak areas from all the CYPs: 8.06 ± 0.09%
CYP2D6
  peak area of the metabolite after incubation with CYP2D6 as a percentage of the total peak areas from all the CYPs: 7.59 ± 0.36%
CYP1A2
  peak area of the metabolite after incubation with CYP1A2 as a percentage of the total peak areas from all the CYPs: 8.69 ± 0.17%
CYP2C19
  peak area of the metabolite after incubation with CYP2C19 as a percentage of the total peak areas from all the CYPs: 6.74 ± 0.36%
CYP2C9
  peak area of the metabolite after incubation with CYP2C9 as a percentage of the total peak areas from all the CYPs: 7.33 ± 0.35%

## COc1cc2c(c(OC)c1O)-c1ccc(OC)c(=O)cc1[C@@H](NC(C)=O)CC2 [M1]
CYP1A1
  peak area of the metabolite after incubation with CYP1A1 as a percentage of the total peak areas from all the CYPs: 3.91 ± 3.16%
CYP3A5
  peak area of the metabolite after incubation with CYP3A5 as a percentage of the total peak areas from all the CYPs: 9.93 ± 0.49%
CYP2D6
  peak area of the metabolite after incubation with CYP2D6 as a percentage of the total peak areas from all the CYPs: 7.91 ± 0.60%
CYP1A2
  peak area of the metabolite after incubation with CYP1A2 as a percentage of the total peak areas from all the CYPs: 6.36 ± 0.19%
CYP2C19
  peak area of the metabolite after incubation with CYP2C19 as a percentage of the total peak areas from all the CYPs: 8.35 ± 0.65%
CYP2C9
  peak area of the metabolite after incubation with CYP2C9 as a percentage of the total peak areas from all the CYPs: 13.68 ± 5.29%

## COc1c(O)cc2c(c1O)-c1ccc(OC)c(=O)cc1[C@@H](NC(C)=O)CC2 [M8]
CYP1A1
  peak area of the metabolite after incubation with CYP1A1 as a percentage of the total peak areas from all the CYPs: 9.32 ± 5.12%
CYP3A5
  peak area of the metabolite after incubation with CYP3A5 as a percentage of the total peak areas from all the CYPs: 11.08 ± 1.09%
CYP1A2
  peak area of the metabolite after incubation with CYP1A2 as a percentage of the total peak areas from all the CYPs: 8.67 ± 3.80%
CYP2C19
  peak area of the metabolite after incubation with CYP2C19 as a percentage of the total peak areas from all the CYPs: 7.66 ± 2.52%
CYP2C9
  peak area of the metabolite after incubation with CYP2C9 as a percentage of the total peak areas from all the CYPs: 6.12 ± 3.22%

## COc1cc2c(c(O)c1OC)-c1ccc(OC)c(=O)cc1[C@@H](NC(C)=O)CC2 [M2]
CYP1A1
  peak area of the metabolite after incubation with CYP1A1 as a percentage of the total peak areas from all the CYPs: 4.51 ± 2.24%
CYP3A5
  peak area of the metabolite after incubation with CYP3A5 as a percentage of the total peak areas from all the CYPs: 12.14 ± 0.15%
CYP2D6
  peak area of the metabolite after incubation with CYP2D6 as a percentage of the total peak areas from all the CYPs: 3.23 ± 0.56%
CYP1A2
  peak area of the metabolite after incubation with CYP1A2 as a percentage of the total peak areas from all the CYPs: 0.00 ± 0.00%
CYP2C19
  peak area of the metabolite after incubation with CYP2C19 as a percentage of the total peak areas from all the CYPs: 6.27 ± 0.30%
CYP2C9
  peak area of the metabolite after incubation with CYP2C9 as a percentage of the total peak areas from all the CYPs: 5.57 ± 1.45%

## COc1c(O)cc2c(c1OC)-c1ccc(OC)c(=O)cc1[C@@H](NC(C)=O)C=C2 [M5]
CYP1A1
  peak area of the metabolite after incubation with CYP1A1 as a percentage of the total peak areas from all the CYPs: 6.87 ± 0.00%
CYP3A5
  peak area of the metabolite after incubation with CYP3A5 as a percentage of the total peak areas from all the CYPs: 8.12 ± 0.00%
CYP2D6
  peak area of the metabolite after incubation with CYP2D6 as a percentage of the total peak areas from all the CYPs: 7.65 ± 11.17%
CYP1A2
  peak area of the metabolite after incubation with CYP1A2 as a percentage of the total peak areas from all the CYPs: 8.33 ± 0.00%
CYP2C19
  peak area of the metabolite after incubation with CYP2C19 as a percentage of the total peak areas from all the CYPs: 8.63 ± 1.05%
CYP2C9
  peak area of the metabolite after incubation with CYP2C9 as a percentage of the total peak areas from all the CYPs: 7.59 ± 0.00%
